The source of these data is paper PMC4887402 (Journal of inorganic biochemistry, 2015).

In the assay the target is Cytochrome P450 CYP3A4 (Homo sapiens, UniProt P08684). The assay can be described thus: UV-VIS spectral titration. It is filed as binding.

Each structure is given as a SMILES string.

Cytochrome P450 CYP3A4, sequence (P08684 whole entry): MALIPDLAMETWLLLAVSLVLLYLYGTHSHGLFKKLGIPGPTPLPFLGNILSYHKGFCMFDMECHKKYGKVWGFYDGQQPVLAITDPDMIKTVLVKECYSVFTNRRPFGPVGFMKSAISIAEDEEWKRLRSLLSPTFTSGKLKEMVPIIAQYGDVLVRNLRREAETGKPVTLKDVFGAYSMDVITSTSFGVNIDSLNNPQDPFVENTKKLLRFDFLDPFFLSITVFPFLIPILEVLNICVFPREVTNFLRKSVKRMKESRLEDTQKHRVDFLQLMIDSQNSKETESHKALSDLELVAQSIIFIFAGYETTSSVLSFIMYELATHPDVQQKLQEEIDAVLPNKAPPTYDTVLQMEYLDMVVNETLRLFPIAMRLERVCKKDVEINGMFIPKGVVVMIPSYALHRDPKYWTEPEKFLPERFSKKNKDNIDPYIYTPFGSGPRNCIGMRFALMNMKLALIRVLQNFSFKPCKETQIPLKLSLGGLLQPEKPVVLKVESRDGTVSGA

As usually defined, the Kd is the concentration at which binding is half-saturated. Read a low Kd as a tighter complex. For the compound `C[C@]12CC[C@H]3[C@@H]([C@H](C/C=C\C[C@@H]4CC5=CC(=O)CC[C@]5(C)[C@H]5CC[C@]6(C)[C@@H](O)CC[C@H]6[C@H]45)CC4=CC(=O)CC[C@@]43C)[C@@H]1CC[C@@H]2O` [cis-TST2], the Kd came to 0.3 µM.
Then `C[C@]12CC[C@H]3[C@@H]([C@H](C/C=C/C[C@@H]4CC5=CC(=O)CC[C@]5(C)[C@H]5CC[C@]6(C)[C@@H](O)CC[C@H]6[C@H]45)CC4=CC(=O)CC[C@@]43C)[C@@H]1CC[C@@H]2O` [trans-TST2], with 8 µM.
